Experimental data reported in US20120322060A1, “DIAGNOSIS AND MONITORING TREATMENT OF PSYCHIATRIC DISEASES WITH SPADIN AND RELATED METHODS” (CENTRE NATIONAL DE LE RECHERCHE SCIENTIFIQUE - CNRS -, priority 2011, published 2012).
No end group written: not given here.

Legend:
[1] = system: C13NJ microglial cell line; experiment: C13NJ wound-healing assay (NT-induced cell migration); type: cell-based; settings: 10 nM NT in the presence of 1 μM spadin
Protocol: A cell-free zone was created within a semi-confluent monolayer with a pipette tip. We analyzed by time-lapse microscopy how cells repopulated the cell-free zone. The 100% of migrating cells was calculated by stimulation of cell migration with 10% of Fetal Calf Serum (FCS).
A cell-free zone was created within a semi-confluent monolayer of microglial culture by scratching cells off with a pipette tip.

DRN 5-HT neurons = experiment: Rat extracellular unitary recordings of DRN 5-HT neurons; type: in vivo; settings: rats, 10^-5 M in 500 μl bolus i.p.
Protocol: Single-barreled glass micropipettes (recording electrodes) were filled with a 2 M NaCl solution saturated with Fast Green FCF, resulting in an impedance of 2-5 MΩ. Rats were anaesthetized with chloral hydrate (400 mg/kg, i.p., using a 8% solution), and placed in a stereotaxic frame. A burr hole was drilled on the midline 1 mm anterior to lambda. DRN 5-HT neurons were encountered over a distance of 1 mm starting immediately below the ventral border of the Sylvius aqueduct. They were identified using the following criteria: a slow (0.5-2.5 Hz) and regular firing rate and long-duration (0.8-1.2 ms) action potentials, with a positive-negative spike. Spikes were computed by using the Spike 2 software, so that the firing rate was calculated as the mean number of events occurring within a 10 s period. For each neuron, the discharge was monitored during 60 seconds. Each rat received either spadin (10^−5M in a 500 μl bolus) or its vehicle. Starting 30 min after the injection, 2 to 3 successive descents were performed along the DRN, for a total of 8-12 cells recorded per animal. Recordings were performed for a maximal duration of 4 hours post-injection.

CREB = experiment: pCREB immunostaining in hippocampal sections; type: in vivo, mouse; settings: 4 days, i.p. 10^-5 M, hippocampal SGZ
Protocol: Free floating sections were permeabilized in 0.1% Triton/PBS for 10 min and blocked with 3% goat serum/PBS for 2 hours at room temperature followed by a single wash in PBS. Sections were then incubated with the monoclonal anti-pCREB antibody (1:300, Cell Signaling Technology) overnight at 4° C. After three washes in PBS, sections were then incubated in biotinylated horse anti-rabbit IgG (Jackson ImmunoResearch, diluted 1:15000) for 2 hours at room temperature. pCREB expression was visualized by 3.3′-diaminobenzidine (DAB) staining using the VectaStain ABC kit (Biovalley). All sections were washed and mounted with Entellan. For BrdU/pCREB immunofluorescence staining, free floating sections of mice injected with BrdU were incubated with the primary antibodies, anti-rabbit pCREB (1:500, Cell Signaling Technology) and anti-mouse BrdU (1:40, Becton-Dickinson). After three washesin PBS, sections were then incubated in anti-IgGAlexa 488- or 594-coupled antibodies (Molecular Probes) for 1 h at room temperature. After drying sections in the dark boxes for 2 hours, they were mounted with Vectashield (Vector laboratories). Confocal microscopy observations were performed with the Laser Scanning Confocal Microscope (TCS SP, Leica) equipped with a DMIRBE inverted microscope, using a Plan Apo 63x/1,4 NA oil immersion objective.

TREK-1 [2] = target: T1, TREK-1 (Mus musculus, UniProt P97438); experiment: Association kinetics / internalization of 125I-spadin on COS-7 cells expressing TREK-1; type: cell-based; design: expressed in transfected cells; host or cells: COS-7 (DEAE-dextran transfection); settings: 37° C.
T1 sequence (P97438 1-426): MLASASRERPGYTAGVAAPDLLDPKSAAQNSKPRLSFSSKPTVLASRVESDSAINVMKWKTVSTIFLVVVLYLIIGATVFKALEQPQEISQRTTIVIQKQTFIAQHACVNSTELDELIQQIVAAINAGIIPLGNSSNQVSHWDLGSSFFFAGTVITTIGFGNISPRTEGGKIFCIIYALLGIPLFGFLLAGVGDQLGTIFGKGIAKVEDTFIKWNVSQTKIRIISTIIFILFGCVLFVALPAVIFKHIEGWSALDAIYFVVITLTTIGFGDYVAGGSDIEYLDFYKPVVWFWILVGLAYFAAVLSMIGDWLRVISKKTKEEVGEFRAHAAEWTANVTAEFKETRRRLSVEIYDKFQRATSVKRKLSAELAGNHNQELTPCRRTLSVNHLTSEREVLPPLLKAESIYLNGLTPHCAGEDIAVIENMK
Protocol: Cells, grown on 12 mm multiwell-dishes, were incubated with 0.2 nM ^125I-spadin for various times at 37° C. in an Earle's Tris-Hepes buffer (cell binding buffer). Incubations were terminated by washing cells twice with the binding buffer or with the same buffer containing 0.5 M NaCl, pH 4, for 2 min to remove non sequestrated radioactivity (acid-NaCl wash). Cells were harvested with 1 ml of 0.1 N NaOH and counted in a gamma-counter. Non specific binding was determined in the presence of 10 μM unlabeled spadin.

TREK-1 [3] = target: T1, TREK-1; experiment: Whole-cell patch-clamp on TREK-1 transfected COS-7 cells; type: cell-based; design: GFP; expressed in transfected cells; host or cells: COS-7 (DEAE-dextran transfection); settings: after 90 sec of application
Protocol: All electrophysiological experiments were done on COS-7 cells seeded at a density of 20,000 cells/35-mm dish 24 h before transfection. Cells were transfected by the classical DEAE-dextran method with TREK-1-GFP plasmids (0.1 μg/μL). Cells were visualized 48-72 h after transfection using fluorescence.
The whole-cell patch-clamp technique was used to evaluate TREK-1 potassium channel current by using a RK 400 patch-clamp amplifier (Axon Instruments, U.S.A.), as previously described. Currents were lowpass filtered at 3 kHz, digitized at 10 kHz using a 12-bit analog-to-digital converter. […] The bath solution contained (in mM): 150 NaCl, 5 KCl, 3 MgCl2, 1 CaCl2, and 10 HEPES, adjusted to pH 7.4 with NaOH; the patch pipette solution contained (in mM): 155 KCl, 3 MgCl2, 5 EGTA, and 10 HEPES, adjusted to pH 7.2 with KOH. Cells were clamped at −80 mV and voltage changes were either applied by ramp (from −100 to 50 mV, 1 s in duration) or by step (from −100 to 40 mV, 1.5 s in duration). Cells were continuously superfused with a microperfusion system. The pipette capacitance was not subtracted from total membrane capacitance and there was no leak substraction. All experiments were done at room temperature (21° C. to 22° C.) and in the presence of a cocktail of potassium channel inhibitors (K^+ blockers: 10 mM tetraethyl ammonium (TEA), 3 mM 4-aminopyridine (4-AP), 50 nM charybdotoxin, 10 μM glibenclamide, 100 nM apamin).
Pclamp software was used to analyze currents recorded in the whole-cell mode measured at 0 mV. Results are expressed as means±SD. To obtain the IC50 value for dose-dependent inhibition, experimental data were fitted with a standard sigmoidal function.

TREK-1 [4] = target: T1, TREK-1; experiment: Whole-cell patch-clamp on CA3 pyramidal neurons in hippocampus brain slices; type: cell-based; design: a cellular network that endogenously expresses both TREK-1 and NTSR3/Sortilin; from tissue; host or cells: mouse hippocampal brain slices, CA3 pyramidal neurons; settings: CA3 neurons of kcnk2-/- mice

Sequence: APLPRWSGPIGVSWGLR [spadin]
- migrating cells, % of number migrating with 10% FCS [1]: 6.2±1.3%
- DRN 5-HT neuron firing rate (DRN 5-HT neurons): 2.66±0.36 Hz
- increase of DRN 5-HT neuron firing rate versus saline (DRN 5-HT neurons): 125%
- number of pCREB-labelled neurons versus saline (CREB): two-fold increase
- time for cell-associated radioactivity to reach a plateau (TREK-1 [2]): ≤ 30 min
- inhibition of current increase induced by 10 μM aa (TREK-1 [3]): inhibited the aa-induced increase
- inhibitory effect on arachidonic acid-induced current (TREK-1 [4]): totally absent
